Measured values: US11471537B2, “Oligomer extended insulin-Fc conjugates” (Novo Nordisk A/S, priority 2017, dated 2022)

How the values were obtained:
Sprague-Dawley rats = experiment: PD studies: blood glucose after subcutaneous dosing; type: in vivo; details: sc, dose 30 nmol/kg
Procedure: The pharmacodynamic effect of the Insulin Fc conjugates of the examples were investigated in normal male Sprague-Dawley rats weighing approx. 350 g at study start.
Animals had free access to food and water during the experiment period. They were dosed subcutaneously in the neck region with a dose of 30 nmol/kg (unless otherwise stated in the figures below). Blood samples for blood glucose and plasma insulin analysis were collected from the tongue veins up to 10 days post dosing. Blood glucose was measured using Biosen S Line (EKF).

isolated rat adipocytes = experiment: Insulin-stimulated lipogenesis; type: cell-based; details: 1% HSA; relative to the activity of human insulin (100%)
Procedure: Insulin-stimulated lipogenesis was measured in isolated rat adipocytes in presence of 1% HSA as described in Moody A J, Stan M A, Stan M, Gliemann J. A Simple Free Fat Cell Bioassay for Insulin. Hormone And Metabolic Research. 1974; 6(1):12-6, see results in Table 6.

insulin receptor A = insulin receptor A (Homo sapiens, UniProt P06213); experiment: Insulin receptor affinity; type: binding; details: relative to affinity of human insulin for insulin receptor A (100%)
Sequence of insulin receptor A (P06213 28-1370 isoform P06213-2 limits assumed): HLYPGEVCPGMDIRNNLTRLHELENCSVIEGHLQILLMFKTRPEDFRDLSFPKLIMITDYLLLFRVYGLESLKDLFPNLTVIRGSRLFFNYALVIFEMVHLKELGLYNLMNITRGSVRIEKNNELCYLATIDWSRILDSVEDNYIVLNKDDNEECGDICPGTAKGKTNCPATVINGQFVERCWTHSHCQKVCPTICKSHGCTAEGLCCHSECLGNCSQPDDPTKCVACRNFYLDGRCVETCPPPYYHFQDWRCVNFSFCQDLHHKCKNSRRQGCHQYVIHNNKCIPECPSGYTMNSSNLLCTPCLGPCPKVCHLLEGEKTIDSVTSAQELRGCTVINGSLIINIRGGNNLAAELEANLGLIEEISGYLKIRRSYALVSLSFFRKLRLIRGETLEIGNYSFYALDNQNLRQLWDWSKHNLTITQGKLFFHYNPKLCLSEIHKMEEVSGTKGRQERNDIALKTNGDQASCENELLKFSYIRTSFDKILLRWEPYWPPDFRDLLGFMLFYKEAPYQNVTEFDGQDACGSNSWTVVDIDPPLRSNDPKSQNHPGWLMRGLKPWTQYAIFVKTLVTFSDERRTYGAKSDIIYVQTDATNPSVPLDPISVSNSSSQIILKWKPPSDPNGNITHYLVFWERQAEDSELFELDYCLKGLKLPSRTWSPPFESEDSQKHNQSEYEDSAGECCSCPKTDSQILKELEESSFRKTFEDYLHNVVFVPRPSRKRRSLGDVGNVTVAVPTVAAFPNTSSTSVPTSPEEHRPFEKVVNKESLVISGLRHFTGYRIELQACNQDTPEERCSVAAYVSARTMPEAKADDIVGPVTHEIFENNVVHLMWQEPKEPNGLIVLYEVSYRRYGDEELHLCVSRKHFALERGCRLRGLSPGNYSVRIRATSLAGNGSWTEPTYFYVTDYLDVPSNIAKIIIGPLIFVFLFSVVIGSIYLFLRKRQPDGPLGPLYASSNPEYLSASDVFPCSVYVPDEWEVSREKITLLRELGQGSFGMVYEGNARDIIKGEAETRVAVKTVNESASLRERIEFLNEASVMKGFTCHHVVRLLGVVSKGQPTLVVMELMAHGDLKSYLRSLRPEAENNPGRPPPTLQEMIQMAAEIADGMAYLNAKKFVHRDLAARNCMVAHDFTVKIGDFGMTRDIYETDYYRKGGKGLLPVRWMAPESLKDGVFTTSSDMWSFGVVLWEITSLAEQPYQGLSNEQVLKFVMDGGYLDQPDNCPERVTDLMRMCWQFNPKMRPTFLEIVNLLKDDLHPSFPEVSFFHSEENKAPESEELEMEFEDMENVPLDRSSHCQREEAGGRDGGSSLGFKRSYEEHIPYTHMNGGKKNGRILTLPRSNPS
Sequence of insulin receptor A (P06213 763-1382 partner limits assumed): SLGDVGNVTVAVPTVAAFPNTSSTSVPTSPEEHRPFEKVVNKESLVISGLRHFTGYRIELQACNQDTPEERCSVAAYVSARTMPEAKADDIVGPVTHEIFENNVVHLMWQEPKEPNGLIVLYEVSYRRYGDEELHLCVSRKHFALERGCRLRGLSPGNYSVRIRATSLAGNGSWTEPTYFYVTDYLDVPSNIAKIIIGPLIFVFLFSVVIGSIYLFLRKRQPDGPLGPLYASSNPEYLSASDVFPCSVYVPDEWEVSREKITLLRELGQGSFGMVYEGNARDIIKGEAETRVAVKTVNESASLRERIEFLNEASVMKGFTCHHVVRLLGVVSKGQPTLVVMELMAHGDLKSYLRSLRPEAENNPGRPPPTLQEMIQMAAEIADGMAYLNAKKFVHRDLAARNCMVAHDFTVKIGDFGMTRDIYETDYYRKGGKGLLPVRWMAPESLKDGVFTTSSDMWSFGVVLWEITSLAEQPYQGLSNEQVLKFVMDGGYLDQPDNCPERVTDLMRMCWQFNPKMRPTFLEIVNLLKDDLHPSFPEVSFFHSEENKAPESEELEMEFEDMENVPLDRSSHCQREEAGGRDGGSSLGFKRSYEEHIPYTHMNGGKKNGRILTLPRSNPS

Substance | Average blood glucose (Sprague-Dawley rats; time 0 days) [mM] | Average blood glucose (Sprague-Dawley rats; time 0.041667 days) [mM] | Average blood glucose (Sprague-Dawley rats; time 0.125 days) [mM] | Average blood glucose (Sprague-Dawley rats; time 0.291667 days) [mM] | Average blood glucose (Sprague-Dawley rats; time 1 day) [mM] | Average blood glucose (Sprague-Dawley rats; time 2 days) [mM] | Average blood glucose (Sprague-Dawley rats; time 3 days) [mM] | Average blood glucose (Sprague-Dawley rats; time 4 days) [mM] | Average blood glucose (Sprague-Dawley rats; time 6 days) [mM] | Average blood glucose (Sprague-Dawley rats; time 7 days) [mM] | Average blood glucose (Sprague-Dawley rats; time 8 days) [mM] | Lipogenesis in rat adipocytes [Potency (%)] Mean Value (isolated rat adipocytes) [%] | Insulin receptor affinity [IC50 relative to HI (%)] Mean Value (insulin receptor A) [%] | Average blood glucose (Sprague-Dawley rats; time 0.208333 days) [mM] | Average blood glucose (Sprague-Dawley rats; time 5 days) [mM]
A14E, A21G, A22(GQAPGQAPGQEP)6-GQAP, A98K^, A99P, B3Q, B25H, B29R, desB30 human insulin/(227A, 234A, 235K, 297E, 315Q, 3840, des447 hIgG4-Fc(228-447))4-[bis[2-[(2-acetyl)amino]ethyl]amino]-4-oxo-butanoyl Conjugate [Example 5.13] | 6.384 | 5.976 | 4.892 | 4.184 | 2.428 | 2.452 | 3.308 | 5.676 | 5.908 | 5.812 | 5.492 | 3.07 | 5.55 |  | 
A14E, A21G, A22(GQAPGQEP)6, A70K^, A71P, B25H, B29R, desB30 human insulin/(227A, 234A, 235K hIgG4-Fc(228-447))4-[bis[2-[(2-acetyl)amino]ethyl]amino]-4-oxo-butanoyl Conjugate [Example 5.9] | 5.812 | 5.448 | 5.438 | 4.426 | 3.044 | 2.614 | 2.594 | 3.734 | 6.244 | 6.312 | 6.186 | 3.02 | 2.96 | 4.902 | 5.932
A14E, A21G, A22(GQEP)6, A46K^, A47P, B25H, B29R, desB30 human insulin/(227A, 234A, 235K hIgG4-Fc(228-447))4-[bis[2-[(2-acetyl)amino]ethyl]amino]-4-oxo-butanoyl Conjugate [Example 5.7] | 5.918 | 5.682 | 4.502 | 3.428 | 2.758 | 2.15 | 2.3 | 2.81 | 6.702 | 6.518 | 6.33 | 1.88 | 2.43 | 3.974 | 4.404
A14E, A21G, A22(GQEP)12, A70K^, A71P, B25H, B29R, desB30 human insulin/(227A, 234A, 235K hIgG4-Fc(228-447))4-[bis[2-[(2-acetyl)amino]ethyl]amino]-4-oxo-butanoyl Conjugate [Example 5.8] | 5.538 | 5.44 | 4.488 | 3.238 | 2.978 | 1.844 | 2.545 | 3.325 | 6.8425 | 6.4875 | 6.1875 | 5.31 | 10.58 | 3.55 | 5.39
